# Reference: publication PMC5972182, “Comparison of a Rat Primary Cell-Based Blood-Brain Barrier Model With Epithelial and Brain Endothelial Cell Lines: Gene Expression and Drug Transport” (Frontiers in Molecular Neuroscience, 2018)
# Tests used:
# [1] = Permeability across primary rat brain endothelial cell-based triple co-culture BBB model (EPA)
# [2] = Permeability across vinblastine-selected VB-Caco-2 cell layers; details: human
# [3] = Permeability across GP8 brain endothelial cell line; assay type: in vitro ADME; details: rat, fluorescein 10 μg/ml, mean ± SD
# Experimental: GP8 rat brain endothelial cell line (provided by Dr. John Greenwood, University College London, UK) was cultured in DMEM/ HAM’s F-12, 15% PDS, 100 μg/ml heparin, 1 ng/ml bFGF and 50 μg/ml gentamicin.
# [4] = Permeability across RBE4 brain endothelial cell line; assay type: in vitro ADME; details: rat, fluorescein 10 μg/ml, mean ± SD
# Experimental: RBE4 rat brain endothelial cell line (provided by Dr. Pierre-Olivier Couraud, Institut Cochin, Paris, France) was grown in DMEM/ HAM’s F-12, supplemented with 10% FBS, 1 ng/ml bFGF and 50 μg/ml gentamicin.
# [5] = Permeability across Caco-2 epithelial cell layers; assay type: in vitro ADME; details: human, CaCo2, fluorescein 10 μg/ml, mean ± SD
# [6] = Permeability across MDCK-MDR1 cell layers; assay type: in vitro ADME, canine; details: dog, fluorescein 10 μg/ml, mean ± SD
# [7] = Permeability across MDCK cell layers; assay type: in vitro ADME, canine; details: dog, fluorescein 10 μg/ml, mean ± SD
# [8] = Permeability across lithium-treated hCMEC/D3 (D3L) cells; assay type: in vitro ADME; details: human, D3L (10 mM LiCl), fluorescein 10 μg/ml, mean ± SD
# Experimental: (§1) Cultures of human brain endothelial hCMEC/D3 cell line (≤passage number 35) were grown in MCDB 131 medium (Pan Biotech) supplemented with 5% FBS, GlutaMAX (100×, LifeTechnologies, Carlsbad, CA, USA), lipid supplement (100×, Life Technologies, Carlsbad, CA, USA), 10 μg/ml ascorbic acid, 550 nM hydrocortisone, 100 μg/ml heparin, 1 ng/ml basic fibroblast growth factor (bFGF, Roche, USA), 2.5 μg/ml insulin, 2.5 μg/ml transferrin, 2.5 ng/ml sodium selenite and 50 μg/ml gentamicin (Weksler et al., [2005]). For differentiation of this cell line (D3L group), the medium was supplemented with 10 mM lithium chloride (LiCl) at the first change of medium (Paolinelli et al., [2013]). For the three brain endothelial cell lines, we used culture media with very similar or identical composition to those that were originally described for their growth and maintenance.
# [9] = Permeability across hCMEC/D3 (D3) brain endothelial cell line; assay type: in vitro ADME; details: human, fluorescein 10 μg/ml, mean ± SD
# Experimental: as §1
# in vitro [10] = details: rat
# in vitro [11] = details: human, Caco-2
# hCMEC/D3 cells = assay: Transendothelial electrical resistance (TEER) of D3 cells after lithium treatment; assay type: cell-based, human; details: 10 mM lithium chloride in medium; unpaired t-test, P < 0.0004
# Experimental: as §1
# Transendothelial electrical resistance (TEER), reflecting the permeability of TJ for sodium ions, was measured by an EVOM voltohmmeter (World Precision Instruments, Sarasota, FL, USA) combined with STX-2 electrodes. Recorded resistance was expressed to the surface area of the filters (Ω × cm^2, Transwell inserts, […] membrane, 0.4 μm pore size, Corning Costar, USA). TEER of cell-free inserts (110 Ω × cm^2) was subtracted from the measured data.
smiles,measurement,setting,value
"NCC(CC(=O)O)c1ccc(Cl)cc1 (centres unmarked) [Baclofen, baclofen]",Papp A→B,[1]; Wistar,163 nm/s
same,Papp A→B,[2],3.1 nm/s
"O=C1OC2(c3ccc(O)cc3Oc3cc(O)ccc32)c2ccccc21 [Fluorescein, fluorescein]","Papp at 30 min, 10 µg/ml",[3],398 ± 35.1 nm/s
same,"Papp at 30 min, 10 µg/ml",[4],274 ± 16.3 nm/s
same,"Papp at 30 min, 10 µg/ml",[1]; Wistar,21 ± 2.5 nm/s
same,"Papp at 30 min, 10 µg/ml",[5],15 ± 2.8 nm/s
same,"Papp at 30 min, 10 µg/ml",[2],3 ± 0.6 nm/s
same,"Papp at 30 min, 10 µg/ml",[6],27 ± 3.1 nm/s
same,"Papp at 30 min, 10 µg/ml",[7],28 ± 2.3 nm/s
same,"Papp at 30 min, 10 µg/ml",[8],193 ± 12.2 nm/s
same,"Papp at 30 min, 10 µg/ml",[9],222 ± 37.1 nm/s
"NCC1(CC(=O)O)CCCCC1 [Gabapentin, gabapentin]",Papp A→B,in vitro [10]; Wistar,29.8 nm/s
same,efflux ratio,in vitro [10],0.92
same,Papp A→B,in vitro [11],< 8.8 nm/s
same,efflux ratio,in vitro [11],> 0.27
same,Papp A-B,VB-Caco-2 cells,below the detection limit
"CO[C@H]1[C@H](O)[C@@H](CO)OC(O)[C@@H]1O (stereo partly drawn) [Glucopyranose, 3-O-methyl-D-glucopyranose]",Papp A→B,[1]; Wistar,< 657 nm/s
same,Papp A→B,[2],172 nm/s
"N[C@@H](Cc1ccc(O)c(O)c1)C(=O)O [L-DOPA, 3,4-dihydroxy-L-phenylalanine]",efflux ratio at 10 μM,[1],0.4
same,Papp A→B,[1]; Wistar,730 ± 40 nm/s
"CC[C@H](C)C(=O)O[C@H]1C[C@H](O)C=C2C=C[C@H](C)[C@H](CC[C@@H](O)C[C@@H](O)CC(=O)O)[C@H]21 [Pravastatin, pravastatin]",Papp A→B,[1]; Wistar,76.1 nm/s
same,Papp A→B,[2],1.9 nm/s
"CCCN(CCC)S(=O)(=O)c1ccc(C(=O)O)cc1 [Probenecid, probenecid]",Papp A→B,[1]; Wistar,190 nm/s
same,Papp A→B,[2],334 nm/s
"CC(C)c1nc(N(C)S(C)(=O)=O)nc(-c2ccc(F)cc2)c1/C=C/[C@@H](O)C[C@@H](O)CC(=O)O [Rosuvastatin, rosuvastatin]",Papp A→B,[1]; Wistar,113 nm/s
same,Papp A→B,[2],3.8 nm/s
"O=C(O)c1ccccc1O [Salicylic acid, salicylic acid]",Papp A→B,[1]; Wistar,47.8 nm/s
same,Papp A→B,[2],76 nm/s
"CCCC(CCC)C(=O)O [Valproic acid, valproic acid]",Papp A→B,[1]; Wistar,394 nm/s
same,Papp A→B,[2],422 nm/s
"[Cl-].[Li+] [lithium, lithium chloride]",Effect on TEER of D3 cells,hCMEC/D3 cells,significantly elevated
Nc1c2c(nc3ccccc13)CCCC2 [tacrine],"Papp at 30 min, 0.5 µM",in vitro [10]; Wistar,1020 ± 270 nm/s
